Data on four compounds can be found in article PMC11123012, “Bioactive Alkaloids from the Mangrove-Derived Fungus Nigrospora oryzae SYSU-MS0024” (Marine Drugs, 2024).

The structures appear in SMILES notation.

A short description of series [1]: DPPH free radical scavenging assay. Conditions: three replicates, read-out: antioxidant activity EC50. As for the experimental part:
An optimized colorimetric method described previously was used to evaluate the DPPH free radical scavenging activities of compounds 1–11 [37]. All tests were measured in three replicates. Vitamin C was taken as a positive control.

In a further series the test system is BV-2 cells. The series can be described thus: LPS-induced NO production in BV-2 cells. It counts as cell-based. Conditions: mean ± SD of five replicates. The method, then:
(§1) NO determination: all compounds were examined for the effect on the release of NO by BV-2 cell lines using the method described previously. All experiments were carried out in five replicates. Microglia Viability Assay: The effects of compounds 1–11 on the viability of BV2 microglia were carried out by MTT assay. BV2 microglia were first seeded at a density of 4000 cells per well for 12 or 24 h using a 96-well plate and then treated with compounds at the concentrations of 1– 100 μmol/L for another 36 h. After that, cells were incubated with MTT (0.5 mg/mL) in a 5% CO2 incubator at 37 °C. Three hours later, the medium was removed, and DMSO (150 μL) was added into each well to dissolve formazan crystals. The […] absorbances were measured at 570 nm using an ELISA microplate reader (Biotek, Winooski, VT, USA).

The next series deals with BV2 microglia. The series can be described thus: Microglia viability assay (MTT). The class given is cell-based. Particulars: BV-2 cells, concentration of 100.0 μmol/L. The method, then: as §1
Another series deals with AChE (Homo sapiens, UniProt P22303). The series can be described thus: biochemical. Particulars: three replicates; read-out: AChE inhibitory activity IC50. The method, then:
All compounds were examined for inhibitory activity against AChE using an optimized colorimetric method described previously. All tests were carried out in three replicates. Donepezil hydrochloride was taken as the positive control.

The test system of the next series is influenza A virus H1N1. Also on record: method as in PMID 34052697. Particulars: read-out: anti-influenza A virus H1N1 activity IC50; cited from earlier work.

Chain of AChE (P22303 32-614): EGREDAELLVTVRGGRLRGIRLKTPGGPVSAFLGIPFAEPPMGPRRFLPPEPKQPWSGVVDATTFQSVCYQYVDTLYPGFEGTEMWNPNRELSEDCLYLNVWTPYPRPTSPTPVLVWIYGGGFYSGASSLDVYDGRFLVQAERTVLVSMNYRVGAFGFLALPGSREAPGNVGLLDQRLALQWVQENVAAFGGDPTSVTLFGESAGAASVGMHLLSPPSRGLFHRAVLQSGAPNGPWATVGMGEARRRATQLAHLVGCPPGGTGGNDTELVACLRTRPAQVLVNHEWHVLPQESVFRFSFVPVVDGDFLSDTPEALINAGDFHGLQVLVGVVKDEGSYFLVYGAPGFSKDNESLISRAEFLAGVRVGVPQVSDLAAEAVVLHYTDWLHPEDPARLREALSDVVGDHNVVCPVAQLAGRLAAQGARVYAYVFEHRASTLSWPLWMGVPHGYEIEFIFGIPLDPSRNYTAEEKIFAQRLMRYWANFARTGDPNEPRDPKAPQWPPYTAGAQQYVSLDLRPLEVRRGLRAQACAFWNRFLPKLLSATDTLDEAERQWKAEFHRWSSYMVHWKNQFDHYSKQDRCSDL

With `O=C1O[C@H]([C@@H](O)CO)C(O)=C1O` [Vitamin C, reference compound], the EC50 (in general, the concentration needed to bring the measured effect to its halfway point) in series [1] was found to be 146 µM.

Consider `CC(=O)Nc1ccccc1O` [Compound 5, N-(2-hydroxyphenyl)-acetamide], for which the EC50 in series [1] turned out to be 167 µM.

In the case of `CC(O)C12CCC(=O)N1c1ccccc1CO2` (centres unmarked) [Compound 2, Nigrosporine B], the “NO accumulation induced by LPS” value in the series on BV-2 cells (compound at 20 μmol/L) is reported as 47.2 ± 0.2 ng/mL; in the series with BV-2 cells (compound at 50 μmol/L), 41.7 ± 0.4 ng/mL; in the series on BV-2 cells (compound at 100 μmol/L), 21.8 ± 0.1 ng/mL. The “cytotoxicity (BV-2 cell viability)” value in the series on BV2 microglia is “without cytotoxicity”. Moreover, on AChE, the IC50 (commonly the point on the concentration scale where inhibition reaches its midpoint) is 104 µM.

With `CC[C@@H](C)C1=C2NC(=O)[C@@](O)(C/C(=C\C=O)OC)C(=O)N2[C@H](C(C)C)C(=O)N1` [deg-pyrasplorine B], the IC50 in the series on influenza A virus H1N1 was 50 µM.
